# Where two headings read alike, the source gives them in different places.
# What was measured:
# [1] = tested on: M. adductor pollicis contractions; experiment: Vecuronium-induced block of M. adductor pollicis contractions (TOF stimulation) and effect of Org 25969 in anaesthetised Rhesus monkeys; assay type: in vivo, Rhesus monkey
# Protocol: • T1: first twitch: amplitude of the first response to TOF stimulation, expressed as percentage of control T1 (%). • T4/T1 ratio: the ratio of T4 over T1 (within one TOF stimulus) expressed as decimals.
# Female Rhesus monkeys were starved overnight and sedated with 10 mg·kg^−1 ketamine i.m., followed by i.v. injection of 25 mg·kg^−1 pentobarbitone sodium and subsequent infusion of 5-10 mg·kg^−1hr^−1. The animals were intubated and ventilated with a mixture of oxygen and nitrous oxide (2:3), using a ventilator. The expired CO2 level was measured using a capnograph. The tidal volume was adjusted to obtain a CO2 level of approximately 4.5%. Oxygen saturation was measured via a probe on the earlobe using a pulse oxymeter. Blood pressure was measured non-invasively with a cuff placed on the tail. The ECG was recorded and heart rate was measured. Rectal temperature was measured and body temperature was kept at 37-38° C. using a heating blanket. The right hand and right arm of the animal were fixed to a frame using surgical tape. The thumb was connected to a force transducer. A pre-load of 200-500 mN was applied. Two needle electrode were placed near the N. ulnaris and the nerve was stimulated with train-of-four pulses (pulse duration: 2 ms, train-frequency: 0.07 Hz). At the end of the experiment, the animals were allowed to recover from anesthesia. Appropriate recovery care was given to all animals. Two groups of monkeys were used to assess the reversal effects of Org 25969 against the neuromuscular blocking agents rocuronium (Esmeron®/Zemuron®) and vecuronium (Norcuron®). In the first group, animals initially received an intravenous bolus injection of a 1×ED90 dose of rocuronium bromide to induce neuromuscular block, followed by spontaneous recovery of the twitches. After complete recovery of the twitches, each group received a second and larger 5×ED90 dose of rocuronium followed by spontaneous recovery in one subgroup, whereas the other subgroup received an intravenous bolus dose of 1150 nmol·kg^−1 Org 25969 as soon as all twitches had disappeared. In the vecuronium groups of animals, the same protocol was used, but rocuronium was replaced by vecuronium. Rocuronium bromide and vecuronium bromide were dissolved in a citric acid/phosphate/mannitol buffer (pH 4.0). Org 25969 was dissolved in saline.
# [2] = tested on: rocuronium-induced block; experiment: Reversal of rocuronium-induced block in several animal models; assay type: in vivo; conditions: guinea pigs, cats and monkeys
# [3] = Org 25969 with rocuronium; neutral pH and 25° C.; cited from earlier work
# [4] = Org 25969 with rapacuronium; compared with rocuronium (about 15.10^6 M^−1); cited from earlier work
# [5] = tested on: neuromuscular block in a patient; conditions: cited from earlier work; for Time to >80% block: value (range)
# [6] = 5× ED90 vecuronium + 1150 nmol · kg^−1 Org 25969 i.v.
# [7] = 5× ED90 vecuronium in the subgroup given 1150 nmol · kg^−1 Org 25969 once all twitches had disappeared
# [8] = rocuronium 0.45 mg.kg−1, n = 50
# [9] = rocuronium 0.6 mg.kg−1, n = 142
structure (smiles),measurement,setting,value
"O=C(O)CCSC[C@H]1O[C@@H]2O[C@H]3[C@H](O)[C@@H](O)[C@@H](O[C@H]4[C@H](O)[C@@H](O)[C@@H](O[C@H]5[C@H](O)[C@@H](O)[C@@H](O[C@H]6[C@H](O)[C@@H](O)[C@@H](O[C@H]7[C@H](O)[C@@H](O)[C@@H](O[C@H]8[C@H](O)[C@@H](O)[C@@H](O[C@H]9[C@H](O)[C@@H](O)[C@@H](O[C@H]1[C@H](O)[C@H]2O)O[C@@H]9CSCCC(=O)O)O[C@@H]8CSCCC(=O)O)O[C@@H]7CSCCC(=O)O)O[C@@H]6CSCCC(=O)O)O[C@@H]5CSCCC(=O)O)O[C@@H]4CSCCC(=O)O)O[C@@H]3CSCCC(=O)O [Org 25969, 6-per-deoxy-6-per-(2-carboxyethyl)thio-γ-cyclodextrin]",effect on recovery from vecuronium-induced block (in words),[1]; 1150 nmol·kg^−1 Org 25969 i.v. after 5×ED90 vecuronium,"initial improvement of the time to 25% and 50% recovery values, but the recovery slowed down"
same,0.50-0.90 TOF ratio interval,[1]; [6],24.2 ± 3.9 min
same,25-75% recovery index,[1]; [6],16.1 ± 3.7 min
same,time to 25% recovery of T1,[1]; [6],9.7 ± 1.9 min
same,time to 90% recovery of T1,[1]; [6],35.8 ± 7.1 min
same,time to TOF ratio 0.90,[1]; [6],48.6 ± 8.3 min
same,block,[1]; [7],100.0 ± 0.0%
same,onset time,[1]; [7],1.0 ± 0.2 min
same,reversal of rocuronium-induced block,[2],rapidly reverse rocuronium-induced block
same,association constant Ka,[3],about 15.10^6 M^−1
same,affinity (association constant),[4],about the same
"C=CC[N+]1([C@H]2C[C@H]3[C@@H]4CC[C@H]5C[C@H](O)[C@@H](N6CCOCC6)C[C@]5(C)[C@H]4CC[C@]3(C)[C@H]2OC(C)=O)CCCC1 [rocuronium, rocuronium bromide]",ED95,"[5]; neuromuscular block, clinical use",0.30 mg/kg
same,Clinical duration (time until return to 25% of control T1),[5]; [8],22 min
same,Time to maximum block,[5]; [8],3.0 min
same,Time to >80% block,[5]; [8],1.3 (0.8-6.2) min
same,Clinical duration (time until return to 25% of control T1),[5]; [9],31 min
same,Time to maximum block,[5]; [9],1.8 min
same,Time to >80% block,[5]; [9],1.0 (0.4-6.0) min
same,Clinical duration (time until return to 25% of control T1),"[5]; rocuronium 0.9 mg.kg−1, n = 20",58 min
same,Time to maximum block,"[5]; rocuronium 0.9 mg.kg−1, n = 20",1.4 min
same,Time to >80% block,"[5]; rocuronium 0.9 mg.kg−1, n = 20",1.1 (0.3-3.8) min
same,Clinical duration (time until return to 25% of control T1),"[5]; rocuronium 1.2 mg.kg−1, n = 18",67 min
same,Time to maximum block,"[5]; rocuronium 1.2 mg.kg−1, n = 18",1.0 min
same,Time to >80% block,"[5]; rocuronium 1.2 mg.kg−1, n = 18",0.7 (0.4-1.7) min

# — patent publication US20050153932A1, “Controlled muscle relaxation” (priority 2003, published 2005)
